pIC50: −log10 of the molar value. Where two headings read alike, the source gives them in different places.
Experiments:
[1] = molecular target: T1, CDK1/Cyclin B (Homo sapiens, UniProt P06493); assay: Enzymatic assay for CDK1 (FRET based LANCE Ultra kinase assay); format: biochemical; settings: read-out: CDK1 enzymatic activity (IC50 range)
T1 construct: purchased Invitrogen PR4768C
Summary of the method: (§1)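 TR-FRET (LANCE Ultra) kinase assay at ATP Km, ULight-MBP peptide substrate (68 nM), 8-dose 4-fold compound series in DMSO. Enzymes: […]; 60 min at 23° C., stopped with EDTA plus Eu-anti-phospho-MBP antibody, read 665/615 nm after 60 min.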

[2] = molecular target: T2, CDK2/Cyclin A (Homo sapiens, UniProt P24941); assay: Enzymatic assay for CDK2 (FRET based LANCE Ultra kinase assay); format: biochemical; settings: read-out: CDK2 enzymatic activity (IC50 range)
T2 construct: purchased Invitrogen PV6290
Summary of the method: as §1

[3] = molecular target: T3, CDK5/p25 (Homo sapiens, UniProt Q00535); assay: Enzymatic assay for CDK5 (FRET based LANCE Ultra kinase assay); format: biochemical; settings: read-out: CDK5 enzymatic activity (IC50 range)
T3 construct: purchased Invitrogen PR8543B
T3 sequence (Q00535 whole entry): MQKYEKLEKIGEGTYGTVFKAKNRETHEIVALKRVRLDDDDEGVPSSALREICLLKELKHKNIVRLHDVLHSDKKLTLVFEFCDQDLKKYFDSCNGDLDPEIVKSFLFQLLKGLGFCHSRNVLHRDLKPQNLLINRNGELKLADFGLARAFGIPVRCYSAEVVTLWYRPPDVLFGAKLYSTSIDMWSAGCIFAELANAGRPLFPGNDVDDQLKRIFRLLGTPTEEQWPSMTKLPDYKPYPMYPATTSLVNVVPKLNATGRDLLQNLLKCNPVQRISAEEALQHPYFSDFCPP
T3 sequence (Q15078 99-307 partner limits assumed): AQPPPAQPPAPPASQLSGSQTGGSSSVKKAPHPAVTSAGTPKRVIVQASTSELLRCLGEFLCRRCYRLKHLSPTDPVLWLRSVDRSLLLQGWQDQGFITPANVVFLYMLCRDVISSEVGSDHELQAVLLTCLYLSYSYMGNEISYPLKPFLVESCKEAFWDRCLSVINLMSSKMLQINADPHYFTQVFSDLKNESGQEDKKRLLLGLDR
Summary of the method: as §1

[4] = molecular target: T4, CDK7/Cyclin H/MNAT1 (Homo sapiens, UniProt P50613); assay: Enzymatic assay for CDK7 (FRET based LANCE Ultra kinase assay); format: biochemical
T4 construct: purchased Invitrogen PR6749B
T4 sequence (P50613 whole entry): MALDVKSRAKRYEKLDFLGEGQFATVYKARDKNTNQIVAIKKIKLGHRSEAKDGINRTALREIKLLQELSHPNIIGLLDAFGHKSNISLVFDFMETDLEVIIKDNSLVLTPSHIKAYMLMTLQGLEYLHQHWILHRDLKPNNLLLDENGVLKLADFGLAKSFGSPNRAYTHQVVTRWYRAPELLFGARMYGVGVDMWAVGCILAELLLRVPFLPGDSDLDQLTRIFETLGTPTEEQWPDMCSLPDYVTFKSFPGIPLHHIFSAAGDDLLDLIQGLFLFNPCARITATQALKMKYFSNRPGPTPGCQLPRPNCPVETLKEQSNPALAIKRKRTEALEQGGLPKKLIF
T4 sequence (P51946 whole entry partner): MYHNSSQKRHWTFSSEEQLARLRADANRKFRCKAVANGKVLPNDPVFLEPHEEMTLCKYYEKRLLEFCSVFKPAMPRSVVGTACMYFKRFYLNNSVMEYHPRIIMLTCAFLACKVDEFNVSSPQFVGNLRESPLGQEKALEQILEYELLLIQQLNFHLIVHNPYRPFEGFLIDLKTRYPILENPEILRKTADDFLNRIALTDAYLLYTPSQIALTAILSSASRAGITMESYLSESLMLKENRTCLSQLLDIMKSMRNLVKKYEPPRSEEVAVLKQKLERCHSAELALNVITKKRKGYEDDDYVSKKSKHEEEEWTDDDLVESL
T4 sequence (P51948 whole entry partner): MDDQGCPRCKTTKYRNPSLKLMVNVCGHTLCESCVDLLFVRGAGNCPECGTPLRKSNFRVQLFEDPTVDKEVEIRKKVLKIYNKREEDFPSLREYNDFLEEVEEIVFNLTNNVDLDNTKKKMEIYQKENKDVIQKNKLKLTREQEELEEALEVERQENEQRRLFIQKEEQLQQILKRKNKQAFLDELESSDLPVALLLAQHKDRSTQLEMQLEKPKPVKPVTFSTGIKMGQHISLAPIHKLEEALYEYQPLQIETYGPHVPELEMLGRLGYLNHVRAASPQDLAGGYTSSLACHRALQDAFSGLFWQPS
Summary of the method: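 LANCE Ultra TR-FRET kinase assay using a ULight-labeled peptide substrate and a Eu-labeled anti-phospho antibody, with ATP at its Km. Purified CDK/cyclin complex was added to compound after brief centrifugation.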

[5] = system: HCT116; assay: Cellular HCT116 viability assay (CellTiter-Glo, 72 hours); format: cell-based; settings: Homo sapiens, HCT-116
Summary of the method: (§2)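 Steps: seed cells at per-line density; add compound, DMSO vehicle kept under 0.1% final; incubate 72 h, 37 °C, 5% CO2; lyse with CellTiter-Glo and read luminescence; run in duplicate.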

[6] = system: H460; assay: Cellular H460 viability assay (CellTiter-Glo, 72 hours); format: cell-based; settings: Homo sapiens, NCI-H460
Summary of the method: as §2

[7] = system: MV4-11; assay: Cellular MV4-11 viability assay (CellTiter-Glo, 72 hours); format: cell-based; settings: Homo sapiens
Summary of the method: as §2

[8] = system: MOLT-4; assay: Cellular MOLT-4 viability assay (CellTiter-Glo, 72 hours); format: cell-based; settings: Homo sapiens, MOLT4 viability assay
Summary of the method: as §2

[9] = system: RPMI-8226; assay: Cellular RPMI-8226 viability assay (CellTiter-Glo, 72 hours); format: cell-based; settings: Homo sapiens
Summary of the method: as §2

[10] = read-out: CDK7 enzymatic activity (IC50 range)

T1 sequence (P06493 whole entry): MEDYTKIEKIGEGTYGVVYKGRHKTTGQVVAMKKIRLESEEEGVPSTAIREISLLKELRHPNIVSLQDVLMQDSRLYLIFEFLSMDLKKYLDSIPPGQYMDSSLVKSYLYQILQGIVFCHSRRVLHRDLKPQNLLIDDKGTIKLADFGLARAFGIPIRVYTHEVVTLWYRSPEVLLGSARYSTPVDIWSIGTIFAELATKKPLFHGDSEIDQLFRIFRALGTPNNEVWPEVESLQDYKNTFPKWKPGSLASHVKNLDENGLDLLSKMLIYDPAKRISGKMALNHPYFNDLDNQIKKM
T1 sequence (P14635 whole entry partner): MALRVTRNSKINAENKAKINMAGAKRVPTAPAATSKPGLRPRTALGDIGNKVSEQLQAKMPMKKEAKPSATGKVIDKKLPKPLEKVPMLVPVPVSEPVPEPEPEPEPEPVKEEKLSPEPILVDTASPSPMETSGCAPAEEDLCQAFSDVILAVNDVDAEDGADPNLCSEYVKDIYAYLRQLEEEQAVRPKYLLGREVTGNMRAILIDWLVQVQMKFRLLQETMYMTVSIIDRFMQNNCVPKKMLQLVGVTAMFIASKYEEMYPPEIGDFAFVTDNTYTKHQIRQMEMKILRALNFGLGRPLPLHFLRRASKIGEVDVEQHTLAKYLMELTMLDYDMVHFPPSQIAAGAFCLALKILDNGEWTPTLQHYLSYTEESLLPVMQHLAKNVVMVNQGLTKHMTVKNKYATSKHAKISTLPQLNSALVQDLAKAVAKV

Row | Compound | pIC50 [1] | pIC50 [2] | pIC50 [3] | CDK1/CDK7: Selectivity of CDK7 inhibition over CDK1 inhibition [4] | CDK2/CDK7: Selectivity of CDK7 inhibition over CDK2 inhibition [4] | CDK5/CDK7: Selectivity of CDK7 inhibition over CDK5 inhibition [4] | pIC50 [4, 10] | pIC50 [5] | pIC50 [6] | pIC50 [7] | pIC50 [8] | pIC50 [9] | pIC50 [4]
1 | CC(C)c1cnn2c(NCc3ccccc3-c3nc4ccccc4[nH]3)nc(N3CCC(N)CC3)nc12 [Compound 98] | 6.00 to 7.00 | 6.00 to 7.00 | > 7.00 | A (A=greater than 200 fold) | B (B=less than 200 fold, but greater than 20 fold) | B (B=less than 200 fold, but greater than 20 fold) | > 7.00 | > 6.00 | > 6.00 | > 6.00 | > 6.00 | > 6.00 | –
2 | CC(=O)Nc1ccc2[nH]c(-c3ccccc3CNc3nc(N4CCC(N)CC4)nc4c(C(C)C)cnn34)cc2c1 [Compound 116] | 6.00 to 7.00 | > 7.00 | > 7.00 | B (B=less than 200 fold, but greater than 20 fold) | B (B=less than 200 fold, but greater than 20 fold) | C (C=less than 20 fold) | > 7.00 | > 6.00 | > 6.00 | > 6.00 | > 6.00 | > 6.00 | –
3 | CC(C)c1cnn2c(NCc3ccccc3-c3cnc4ccccc4n3)nc(N3CCC(N)CC3)nc12 [Compound 80] | 6.00 to 7.00 | 6.00 to 7.00 | > 7.00 | A (A=greater than 200 fold) | B (B=less than 200 fold, but greater than 20 fold) | B (B=less than 200 fold, but greater than 20 fold) | > 7.00 | > 6.00 | > 6.00 | > 6.00 | 5.00 to 6.00 | > 6.00 | –
4 | CC(C)c1cnn2c(NCc3ccccc3-n3cc4c(n3)CCCC4)nc(N3CCC(N)CC3)nc12 [Compound 109] | < 6.00 | 6.00 to 7.00 | 6.00 to 7.00 | A (A=greater than 200 fold) | A (A=greater than 200 fold) | B (B=less than 200 fold, but greater than 20 fold) | > 7.00 | > 6.00 | > 6.00 | > 6.00 | > 6.00 | > 6.00 | –
5 | CC(C)c1cnn2c(NCc3ccccc3-n3ccc(-c4ccccc4)n3)nc(N3CCC(N)CC3)nc12 [Compound 99] | < 6.00 | < 6.00 | 6.00 to 7.00 | A (A=greater than 200 fold) | A (A=greater than 200 fold) | B (B=less than 200 fold, but greater than 20 fold) | – | > 6.00 | > 6.00 | > 6.00 | 5.00 to 6.00 | 5.00 to 6.00 | > 7.00
6 | CC(C)c1cnn2c(NCc3ccccc3-c3nc4ccccc4o3)nc(N3CCC(N)CC3)nc12 [Compound 97] | 6.00 to 7.00 | 6.00 to 7.00 | 6.00 to 7.00 | B (B=less than 200 fold, but greater than 20 fold) | B (B=less than 200 fold, but greater than 20 fold) | B (B=less than 200 fold, but greater than 20 fold) | > 7.00 | > 6.00 | > 6.00 | > 6.00 | 5.00 to 6.00 | > 6.00 | –
7 | NC1CCN(c2nc(NCc3ccccc3-n3cccn3)n3ncc(Br)c3n2)CC1 [Compound 18] | 6.00 to 7.00 | 6.00 to 7.00 | > 7.00 | B (B=less than 200 fold, but greater than 20 fold) | B (B=less than 200 fold, but greater than 20 fold) | C (C=less than 20 fold) | > 7.00 | > 6.00 | > 6.00 | > 6.00 | 5.00 to 6.00 | > 6.00 | –
8 | CC(C)c1cnn2c(NCc3ccccc3-c3cn4ccccc4n3)nc(N3CCC(N)CC3)nc12 [Compound 110] | 6.00 to 7.00 | > 7.00 | > 7.00 | B (B=less than 200 fold, but greater than 20 fold) | B (B=less than 200 fold, but greater than 20 fold) | C (C=less than 20 fold) | > 7.00 | – | > 6.00 | > 6.00 | > 6.00 | > 6.00 | –
9 | CC(C)c1cnn2c(NCc3ccccc3-c3ncc4ccccc4n3)nc(N3CCC(N)CC3)nc12 [Compound 77] | 6.00 to 7.00 | 6.00 to 7.00 | 6.00 to 7.00 | A (A=greater than 200 fold) | B (B=less than 200 fold, but greater than 20 fold) | B (B=less than 200 fold, but greater than 20 fold) | > 7.00 | – | > 6.00 | > 6.00 | 5.00 to 6.00 | > 6.00 | –
10 | CC(C)c1cnn2c(NCc3ccccc3-n3cccn3)nc(N3CCC(C)(N)CC3)nc12 [Compound 27] | 6.00 to 7.00 | 6.00 to 7.00 | > 7.00 | A (A=greater than 200 fold) | B (B=less than 200 fold, but greater than 20 fold) | B (B=less than 200 fold, but greater than 20 fold) | > 7.00 | > 6.00 | > 6.00 | > 6.00 | 5.00 to 6.00 | > 6.00 | –
11 | CC(C)Oc1ccc2cn(-c3ccccc3CNc3nc(N4CCC(N)CC4)nc4c(C(C)C)cnn34)nc2c1 [Compound 107] | < 6.00 | 6.00 to 7.00 | 6.00 to 7.00 | A (A=greater than 200 fold) | A (A=greater than 200 fold) | B (B=less than 200 fold, but greater than 20 fold) | > 7.00 | – | > 6.00 | > 6.00 | 5.00 to 6.00 | > 6.00 | –
12 | CC(C)c1cnn2c(NCc3ccccc3-c3cc4c(F)cccc4[nH]3)nc(N3CCC(N)CC3)nc12 [Compound 112] | 6.00 to 7.00 | 6.00 to 7.00 | > 7.00 | B (B=less than 200 fold, but greater than 20 fold) | B (B=less than 200 fold, but greater than 20 fold) | C (C=less than 20 fold) | > 7.00 | > 6.00 | > 6.00 | > 6.00 | > 6.00 | > 6.00 | –

Reference: US11945822B2, “Pyrazolo-triazine and/or pyrazolo-pxrimidine derivatives as selective inhibitor of cyclin dependent kinase” (QURIENT CO., LTD., priority 2018, dated 2024)
